Test results taken from PubChem BioAssay (NCI).
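Assay format: 96-well plates, 48-hour exposure. GI50: concentration for 50% inhibition of growth. Definition used: TGI = concentration required for complete inhibition of growth.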

Legend:
Assay in all cases: DTP human tumour cell line panel, 48 h
A549 NSCLC = test system: A549 NSCLC
COLO 205 colon = test system: COLO 205 colon
HCT-116 colon = test system: HCT-116 colon
HL-60(TB) leukemia = test system: HL-60(TB) leukemia
IGROV1 ovarian = test system: IGROV1 ovarian
OVCAR-4 ovarian = test system: OVCAR-4 ovarian
RPMI-8226 leukemia = test system: RPMI-8226 leukemia
SK-MEL-2 melanoma = test system: SK-MEL-2 melanoma
SNB-19 CNS = test system: SNB-19 CNS
UACC-257 melanoma = test system: UACC-257 melanoma

Row | SMILES | GI50 (A549 NSCLC) | TGI (A549 NSCLC) | GI50 (COLO 205 colon) | TGI (COLO 205 colon) | GI50 (HCT-116 colon) | TGI (HCT-116 colon) | GI50 (HL-60(TB) leukemia) | TGI (HL-60(TB) leukemia) | GI50 (IGROV1 ovarian) | TGI (IGROV1 ovarian) | GI50 (OVCAR-4 ovarian) | TGI (OVCAR-4 ovarian) | GI50 (RPMI-8226 leukemia) | TGI (RPMI-8226 leukemia) | GI50 (SK-MEL-2 melanoma) | TGI (SK-MEL-2 melanoma) | GI50 (SNB-19 CNS) | TGI (SNB-19 CNS) | GI50 (UACC-257 melanoma) | TGI (UACC-257 melanoma)
1 | CCCCCCCCCCCCCCCCC(=O)O.CCCCCCCCCCCCCCCCCC(=O)O.CCCCCCCCCCCCCCCCCC(=O)O.CCCCCCCCCCCCCCCCCC(=O)O.CCCCCCCCCCCCCCCCCC(=O)O.CO[CH-]OC12COC1CC(O)C1(C)C(O)C(OC(C)O)C3=C(C)C(OC(=O)C(O)C([NH-])c4ccccc4)CC(O)(C(OC(=O)c4ccccc4)C21)C3(C)C.[Cu+].[Zn].[Zn].[Zn].[Zn].[Zn] (configuration not stated) | 0.00818 µM | > 22.3 µM | 0.00844 µM | > 25 µM | 0.00309 µM | > 25 µM | 0.00466 µM | > 25 µM | 0.00711 µM | 4.39 µM | 2.35 µM | 11.7 µM | 0.00776 µM | > 25 µM | < 0.0118 µM | 11.2 µM | 0.0105 µM | > 11.5 µM | 3.91 µM | > 25 µM
2 | CCN(CC)Cc1c(/C=C\c2cc(OC)c(OC)c(OC)c2)ccc(OC)c1O |  | > 100 µM |  | 7.36 µM |  | 42.7 µM |  | > 60.8 µM |  | > 78.5 µM |  | > 75.5 µM |  | > 100 µM |  | > 37.1 µM |  | > 100 µM |  | > 100 µM
3 | C[C@@H](Oc1ccc(C(=O)NS(=O)(=O)C(C)(C)C)cc1C(F)(F)F)c1ccc(Oc2ccccc2)cn1 | 5.31 µM | 20.5 µM | 2.67 µM | 7.95 µM | 2.48 µM | 11.2 µM | 2.4 µM | 8.23 µM | 2.64 µM | 13.7 µM | 4.85 µM | 19.7 µM | 2.95 µM | 9.87 µM | 6.56 µM | 23.3 µM | 3.02 µM | 14 µM | 11.9 µM | 32.7 µM
4 | COc1cc(C(=O)N/N=C/c2ccc(N(C)C)cc2)cc(OC)c1OC | 0.502 µM | > 100 µM | 0.406 µM | 1.64 µM | 0.392 µM | > 100 µM | 0.303 µM |  | 1.15 µM | > 100 µM | 0.824 µM | > 100 µM | 0.344 µM |  | 1.15 µM | > 81.3 µM | 10.6 µM | > 100 µM |  | > 100 µM
5 | CN(Cc1cc(Cl)cc(Cl)c1O)Cc1c(O)ccc2ccccc12 |  | 62.3 µM |  | 32 µM |  | 58.7 µM |  | 57.4 µM |  | 33.9 µM |  | 38.9 µM |  | 73.1 µM |  | 35.8 µM |  | 37.9 µM |  | 34.6 µM
6 | Cc1ccc(NC(=O)/C(Cl)=C(/Cl)C(=O)O)cc1 |  | > 100 µM |  | 20.3 µM |  | 28.2 µM |  | 4.36 µM |  | 61.1 µM |  | 33.1 µM |  | 49.8 µM |  | 37.6 µM |  | > 100 µM |  | 44.2 µM
7 | COc1cc(-c2cc(-c3cc(OC)c(OC)c(OC)c3)nc3nc(N)[nH]c(=O)c23)ccc1Oc1ccnc2cc(Cl)ccc12 | 2.84 µM | > 100 µM | 12.9 µM | 30 µM | 1.29 µM | 22.2 µM | 2.45 µM | 8.22 µM | 4.49 µM | > 100 µM | 4.34 µM | > 100 µM | 2.52 µM | 10.2 µM | 2.25 µM | 7.68 µM | 6.62 µM | > 100 µM | 7.08 µM | 60.8 µM
8 | CC(C)NC(=O)CCN(C(=O)O)S(=O)(=O)c1ccc(NC(=O)c2ccccc2)cc1 |  | > 71.2 µM |  | > 58.5 µM |  | > 54.1 µM |  | > 64 µM |  | > 100 µM |  | > 100 µM |  | > 71.5 µM |  | > 100 µM |  | > 100 µM |  | > 79.3 µM
9 | N/N=c1\c2ccccc2c2cc3c(cc12)/c(=N/N)c1ccccc13 |  | > 100 µM |  | > 100 µM |  | > 100 µM |  | > 100 µM |  | > 100 µM |  | > 100 µM |  | > 100 µM |  | > 100 µM |  | > 100 µM |  | > 100 µM
